# Results as given in paper PMC6472337, “L amino acid transporter structure and molecular bases for the asymmetry of substrate interaction” (Nature Communications, 2019).
# Where “and” joins values, the source holds several entries; their conditions need not be identical. Identical values can stand only once. Like-named read-outs stand apart in the source and are kept apart here.
# What was measured:
# BasC wild-type = assay: [3H]L-alanine transport (influx, efflux, exchange) in BasC proteoliposomes; type: biochemical, Carnobacterium sp AT7; conditions: for V: 4 mM L-alanine inside PLs, without Nb74
# Experimental: BasC-GFP protein was reconstituted in E. coli polar lipids (Sigma-Aldrich, Madrid, Spain), as previously described. Lipids were dried under N2 and suspended in reconstitution buffer (20 mM Tris-Base, 150 mM NaCl, pH 7.4). The suspension was sonicated to clarity and purified BasC protein was added to reach the desired protein to lipid ratio of 1:100 (w:w). To destabilize the liposomes, 1.25% ß-D-octylglucoside was added and the mixture was incubated on ice with occasional agitation for 5 min. DDM and ß-D-octylglucoside were removed by dialysis for 40 h at 4 °C against 100 volumes of dialysis buffer. Proteoliposome (PL) suspensions were frozen in liquid N2 and stored at −80 °C until use.
# For uptake experiments, the desired intraliposomal amino acid concentration was added to the PL suspension, which was then subjected to three freeze/thaw cycles. The extraliposomal amino acid content was then removed by ultracentrifugation (100,000 × g for 1 h at 4 °C) and PLs were resuspended to one-third of the initial volume with reconstitution buffer. Amino acid uptake assays were initiated after mixing 10 μl of cold PLs with 180 μl of transport buffer (20 mM Tris-Base, 150 mM NaCl, pH 7.4 plus 0.5–1 µCi/180 µl of radiolabeled L-amino acid (Perkin Elmer, Waltham, MA)) supplemented with the unlabeled amino acid to the desired concentration. This mixture was then incubated at room temperature for the indicated periods. […] Filters were then washed twice with 2 ml of stop buffer and dried, and the trapped radioactivity was counted. Transport measured in PLs containing no amino acid was subtracted from each data point to calculate the net exchange. […] BasC protein in PLs was determined by Coomassie blue staining in SDS-PAGE gels compared with known amounts of BasC in DDM micelles, determined by BCA assay (Pierce, Rockford, IL) and loaded in the same gel.
# BasC S282A mutant = assay: [3H]L-alanine transport in BasC S282A proteoliposomes; type: biochemical, Carnobacterium sp AT7; conditions: BasC S282A in PLs, WT = 100, n=1-3 and mean
# Experimental: BasC was overexpressed as a C-terminal fusion with GFP in E. coli BL21 Star (DE3) cells grown in LB media. Single point mutations (Supplementary Table 2) were introduced using the QuikChange site-directed mutagenesis kit (Stratagene, San Diego, CA). All mutations were verified by sequencing. Expression was induced with 0.1 mM isopropyl-ß-D-thiogalactopyranoside at 37 °C for 22 h. Cells were harvested at 5000 × g for 15 min at 4 °C and stored at −80 °C until use. Cell pellets were thawed and resuspended in 20 mM Tris-Base, 150 mM NaCl, pH 7.4. […]
# For uptake experiments, the desired intraliposomal amino acid concentration was added to the PL suspension, which was then subjected to three freeze/thaw cycles. […] Filters were then washed twice with 2 ml of stop buffer and dried, and the trapped radioactivity was counted. Transport measured in PLs containing no amino acid was subtracted from each data point to calculate the net exchange. […] BasC protein in PLs was determined by Coomassie blue staining in SDS-PAGE gels compared with known amounts of BasC in DDM micelles, determined by BCA assay (Pierce, Rockford, IL) and loaded in the same gel.
# BasC Y236F mutant = assay: Thermostability-based L-alanine binding assay, Y236F; set-up: species or system Carnobacterium sp AT7; conditions: for Kd Y236F binding curve, normalized signal: n=1-3
# Experimental: GFP-fused BasC proteins purified in DM were incubated for 10 min at 4–60 °C (Y236F and K154A mutants) or 4–70 °C (wild-type). In total, 200 µl of 2 mg ml^−1 protein was used for each temperature point. Protein was then centrifuged at 186,000 × g for 30 min. […] Fractions (200 µl) were collected and measured for GFP fluorescence. The peak heights were normalized to those of samples incubated at 4 °C and were fit to the Hill equation using the GraphPad Prism 4 program (GraphPad Software Inc., San Diego, CA). Melting temperatures (Tm) were determined by fitting the curves to a sigmoidal dose-response equation, as previously described.
# BasC-GFP proteins were then incubated at the calculated Tm for 10 min and centrifuged at 186,000 × g for 30 min. […] Binding affinities were determined by fitting the curves to a sigmoidal dose-response equation.
smiles,measurement,setting,value
C[C@H](N)C(=O)O [L-alanine],saturation of the transporter at 4 mM intraliposomal L-alanine,BasC wild-type; BasC wild-type,about 80%
same,V/[L-Ala],"BasC wild-type; Eadie-Hofstee, L-alanine 800 μM, with 5 µM Nb74, n=1-3 and mean",0.010 pmol µg prot-1 s-1µM-1
same,Km,"BasC wild-type; L-alanine concentrations up to 800 µM, absence of Nb74, read-out: extracellular Km",65 ± 12 µM
same,V,"BasC wild-type; external [3H]L-alanine 100 μM, n=1-3 and mean",5.346 pmol L-Ala μg BasC-1 s-1 and 5.124 pmol L-Ala μg BasC-1 s-1 and 4.879 pmol L-Ala μg BasC-1 s-1
same,V,"BasC wild-type; external [3H]L-alanine 200 μM, n=1-3 and mean",7.346 pmol L-Ala μg BasC-1 s-1 and 6.582 pmol L-Ala μg BasC-1 s-1 and 6.938 pmol L-Ala μg BasC-1 s-1
same,V,"BasC wild-type; external [3H]L-alanine 400 μM, n=1-3 and mean",7.143 pmol L-Ala μg BasC-1 s-1 and 6.357 pmol L-Ala μg BasC-1 s-1 and 9.257 pmol L-Ala μg BasC-1 s-1
same,Km,"BasC wild-type; extracellular side, wild-type, read-out: Km (o)",53.7 ± 3.97 µM
same,Km,"BasC wild-type; full range kinetics inhibited by 5 µM Nb74, read-out: extracellular Km",46 ± 9 µM
same,Km,"BasC wild-type; intracellular side, wild-type, read-out: Km (i)",2220 ± 150 µM
same,Vmax,BasC wild-type; wild-type,6.37 ± 0.70 pmols L-alanine µg protein^−1 s^−1
same,10 µM [3H]L-alanine/4 mM L-alanine exchange normalized to wild-type,BasC S282A mutant,124.06 and 127.02 and 133.54
same,10 µM [3H]L-alanine/4 mM L-alanine exchange normalized to wild-type,BasC S282A mutant; mean,128.21
same,Kd,"BasC Y236F mutant; Y236F, incubated at Tm, L-alanine 0–200 mM, read-out: KD (apparent, thermostability-based)",42.3 ± 5 mM
same,"Kd Y236F binding curve, normalized signal",BasC Y236F mutant; [L-Alanine] 6.25 mM,22.582 and 17.176 and 16.654
same,"Kd Y236F binding curve, normalized signal",BasC Y236F mutant; [L-Alanine] 12.50 mM,33.547 and 26.076 and 17.575
same,"Kd Y236F binding curve, normalized signal",BasC Y236F mutant; [L-Alanine] 25 mM,44.758 and 42.547 and 31.773
same,"Kd Y236F binding curve, normalized signal",BasC Y236F mutant; [L-Alanine] 50 mM,72.230 and 70.914 and 57.702
same,"Kd Y236F binding curve, normalized signal",BasC Y236F mutant; [L-Alanine] 100 mM,89.225 and 96.379 and 94.240
same,"Kd Y236F binding curve, normalized signal",BasC Y236F mutant; [L-Alanine] 150 mM,94.446 and 95.445 and 86.456
same,"Kd Y236F binding curve, normalized signal",BasC Y236F mutant; [L-Alanine] 200 mM,100.000
same,Kd,"BasC Y236F mutant; individual experiments n=1, n=2, n=3, read-out: Apparent Kd Y236F",44.1 mM and 36.7 mM and 46.2 mM
same,Kd,"BasC Y236F mutant; mean of n=3, read-out: Apparent Kd Y236F, mean",42.3 mM
